Values quoted from earlier work in paper PMC5598522 (Toxicology Reports, 2014).

Columns and labels:
[1] = cited from earlier work
[2] = Wistar rats; cited from earlier work
[3] = test system: rats; conditions: cited from earlier work

Row | Structure (SMILES) | Tumor incidences in 2 year carcinogenicity bioassay [1] | Weight gain [2] | Uterine and mammary tumors [3]
1 | COC(=O)[C@H](c1ccccc1Cl)N1CCc2sccc2C1 [Clopidogrel] | did not alter tumor incidences |  | 
2 | CC(C)C[C@H]1C(=O)N2CCC[C@H]2[C@]2(O)O[C@](NC(=O)[C@@H]3C=C4c5cccc6[nH]c(Br)c(c56)C[C@H]4N(C)C3)(C(C)C)C(=O)N12 [bromocriptine] |  | inhibited weight gain | increases uterine and decreases mammary tumors only in rats
